Test results from patent US20260184713A1, “KINASE INHIBITORS” (The United States of America, as represented by the …, priority 2022, published 2026).
Read-outs that look alike come from different tables or passages of the source.

Assays:
Assay in all cases: HOTSPOT radiometric kinase assay
PKCθ = target: T1, PKCθ (Homo sapiens, UniProt Q04759); type: biochemical; conditions: 2 μM, 10 μM ATP
T1 construct: purchased Reaction Biology Corp

STK39/STLK3 = target: T2, STK39/STLK3 (Homo sapiens, UniProt Q9UEW8); type: biochemical; conditions: 2 μM, 10 μM ATP
T2 construct: purchased Reaction Biology Corp

PKCv/PKD3 = target: T3, PKCv/PKD3 (Homo sapiens, UniProt O94806); type: biochemical
T3 construct: purchased Reaction Biology Corp
T3 sequence (O94806 1-890): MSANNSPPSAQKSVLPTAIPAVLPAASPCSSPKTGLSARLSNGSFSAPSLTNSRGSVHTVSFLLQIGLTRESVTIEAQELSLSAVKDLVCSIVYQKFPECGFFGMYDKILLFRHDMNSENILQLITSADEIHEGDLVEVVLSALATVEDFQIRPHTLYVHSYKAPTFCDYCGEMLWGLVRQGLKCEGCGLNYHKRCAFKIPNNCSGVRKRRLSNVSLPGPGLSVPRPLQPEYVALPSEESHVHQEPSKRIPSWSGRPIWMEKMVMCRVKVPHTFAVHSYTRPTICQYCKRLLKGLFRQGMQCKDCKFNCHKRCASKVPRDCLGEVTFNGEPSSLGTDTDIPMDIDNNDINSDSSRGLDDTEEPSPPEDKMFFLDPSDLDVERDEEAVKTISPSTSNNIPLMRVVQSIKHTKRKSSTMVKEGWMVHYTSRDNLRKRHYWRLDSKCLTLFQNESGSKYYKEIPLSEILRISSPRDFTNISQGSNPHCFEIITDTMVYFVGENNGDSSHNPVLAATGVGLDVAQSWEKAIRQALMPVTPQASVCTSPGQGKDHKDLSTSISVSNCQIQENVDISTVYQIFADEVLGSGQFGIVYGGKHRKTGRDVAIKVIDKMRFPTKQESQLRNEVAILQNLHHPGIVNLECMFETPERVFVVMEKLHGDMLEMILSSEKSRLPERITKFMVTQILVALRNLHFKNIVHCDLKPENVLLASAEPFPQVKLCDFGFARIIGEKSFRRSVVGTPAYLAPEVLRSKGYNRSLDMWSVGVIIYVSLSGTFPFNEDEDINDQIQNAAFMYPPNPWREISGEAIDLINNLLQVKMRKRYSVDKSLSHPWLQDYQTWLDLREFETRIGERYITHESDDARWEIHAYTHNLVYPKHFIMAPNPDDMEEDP

DYRK1A = target: T4, DYRK1A (Homo sapiens, UniProt Q13627); type: biochemical
T4 construct: purchased Reaction Biology Corp

NLK = target: T5, NLK (Homo sapiens, UniProt Q9UBE8); type: biochemical; conditions: 10 μM ATP
T5 construct: purchased Reaction Biology Corp

DYRK3 = target: T6, DYRK3 (Homo sapiens, UniProt O43781); type: biochemical
T6 construct: purchased Reaction Biology Corp
T6 sequence (O43781 1-588): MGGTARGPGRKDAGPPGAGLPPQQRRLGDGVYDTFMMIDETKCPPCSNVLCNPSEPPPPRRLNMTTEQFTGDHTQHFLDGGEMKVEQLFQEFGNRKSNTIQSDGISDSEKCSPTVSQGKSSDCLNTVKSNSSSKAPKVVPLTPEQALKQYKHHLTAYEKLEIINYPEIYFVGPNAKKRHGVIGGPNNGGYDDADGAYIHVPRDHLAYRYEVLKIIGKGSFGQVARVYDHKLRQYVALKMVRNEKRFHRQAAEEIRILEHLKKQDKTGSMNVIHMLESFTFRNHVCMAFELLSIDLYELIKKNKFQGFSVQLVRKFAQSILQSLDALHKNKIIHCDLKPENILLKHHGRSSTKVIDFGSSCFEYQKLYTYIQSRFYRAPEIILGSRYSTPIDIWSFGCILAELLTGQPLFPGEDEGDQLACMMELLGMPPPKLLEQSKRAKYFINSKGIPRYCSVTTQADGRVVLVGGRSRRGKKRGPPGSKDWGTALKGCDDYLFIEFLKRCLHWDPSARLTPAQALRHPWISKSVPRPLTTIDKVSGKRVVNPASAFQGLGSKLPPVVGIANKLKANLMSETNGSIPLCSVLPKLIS

WNK1 = target: T7, WNK1 (Homo sapiens, UniProt Q9H4A3); type: biochemical; conditions: 10 μM ATP
T7 construct: purchased Reaction Biology Corp

EPHB3 = target: T8, EPHB3 (Homo sapiens, UniProt P54753); type: biochemical; conditions: 10 μM ATP
T8 construct: purchased Reaction Biology Corp

CDK9 = target: T9, CDK9 (Homo sapiens, UniProt P50750); type: biochemical; conditions: 50 nM, 10 μM ATP
T9 construct: purchased Reaction Biology Corp

DYRK4 = target: T10, DYRK4 (Homo sapiens, UniProt Q9NR20); type: biochemical; conditions: 10 μM ATP
T10 construct: purchased Reaction Biology Corp

MAP2K1 (MEK1) = MAP2K1 (MEK1) (Homo sapiens, UniProt Q02750)
CAMK1δ = CAMK1δ (Homo sapiens, UniProt Q8IU85)
Sequence of CAMK1δ (Q8IU85 whole entry): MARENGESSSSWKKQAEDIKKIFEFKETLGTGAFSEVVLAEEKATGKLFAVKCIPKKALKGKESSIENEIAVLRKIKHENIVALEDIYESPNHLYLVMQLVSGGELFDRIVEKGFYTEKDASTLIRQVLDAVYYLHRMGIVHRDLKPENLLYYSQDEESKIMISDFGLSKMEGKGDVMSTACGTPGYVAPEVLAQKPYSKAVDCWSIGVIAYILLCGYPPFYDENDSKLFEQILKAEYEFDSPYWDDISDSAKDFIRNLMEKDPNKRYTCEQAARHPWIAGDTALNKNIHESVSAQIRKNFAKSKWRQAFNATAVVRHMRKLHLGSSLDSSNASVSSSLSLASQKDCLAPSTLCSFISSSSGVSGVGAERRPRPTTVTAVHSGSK

T5 sequence (Q9UBE8 whole entry): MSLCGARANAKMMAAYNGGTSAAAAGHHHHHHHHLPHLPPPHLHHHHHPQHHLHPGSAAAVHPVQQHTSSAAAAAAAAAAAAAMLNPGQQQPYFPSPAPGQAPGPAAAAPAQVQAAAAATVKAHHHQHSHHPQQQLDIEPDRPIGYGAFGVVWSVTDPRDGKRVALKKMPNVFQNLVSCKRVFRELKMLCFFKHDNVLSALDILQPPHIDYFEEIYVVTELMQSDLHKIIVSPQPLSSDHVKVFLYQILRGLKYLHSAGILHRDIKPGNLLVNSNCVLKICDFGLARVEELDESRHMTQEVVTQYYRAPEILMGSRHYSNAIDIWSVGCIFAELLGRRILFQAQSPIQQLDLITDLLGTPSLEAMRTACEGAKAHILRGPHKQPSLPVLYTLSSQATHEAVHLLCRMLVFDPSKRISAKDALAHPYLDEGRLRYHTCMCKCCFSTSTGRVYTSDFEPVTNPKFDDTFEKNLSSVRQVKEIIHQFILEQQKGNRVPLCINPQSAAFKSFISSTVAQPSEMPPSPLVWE
T8 sequence (P54753 34-998): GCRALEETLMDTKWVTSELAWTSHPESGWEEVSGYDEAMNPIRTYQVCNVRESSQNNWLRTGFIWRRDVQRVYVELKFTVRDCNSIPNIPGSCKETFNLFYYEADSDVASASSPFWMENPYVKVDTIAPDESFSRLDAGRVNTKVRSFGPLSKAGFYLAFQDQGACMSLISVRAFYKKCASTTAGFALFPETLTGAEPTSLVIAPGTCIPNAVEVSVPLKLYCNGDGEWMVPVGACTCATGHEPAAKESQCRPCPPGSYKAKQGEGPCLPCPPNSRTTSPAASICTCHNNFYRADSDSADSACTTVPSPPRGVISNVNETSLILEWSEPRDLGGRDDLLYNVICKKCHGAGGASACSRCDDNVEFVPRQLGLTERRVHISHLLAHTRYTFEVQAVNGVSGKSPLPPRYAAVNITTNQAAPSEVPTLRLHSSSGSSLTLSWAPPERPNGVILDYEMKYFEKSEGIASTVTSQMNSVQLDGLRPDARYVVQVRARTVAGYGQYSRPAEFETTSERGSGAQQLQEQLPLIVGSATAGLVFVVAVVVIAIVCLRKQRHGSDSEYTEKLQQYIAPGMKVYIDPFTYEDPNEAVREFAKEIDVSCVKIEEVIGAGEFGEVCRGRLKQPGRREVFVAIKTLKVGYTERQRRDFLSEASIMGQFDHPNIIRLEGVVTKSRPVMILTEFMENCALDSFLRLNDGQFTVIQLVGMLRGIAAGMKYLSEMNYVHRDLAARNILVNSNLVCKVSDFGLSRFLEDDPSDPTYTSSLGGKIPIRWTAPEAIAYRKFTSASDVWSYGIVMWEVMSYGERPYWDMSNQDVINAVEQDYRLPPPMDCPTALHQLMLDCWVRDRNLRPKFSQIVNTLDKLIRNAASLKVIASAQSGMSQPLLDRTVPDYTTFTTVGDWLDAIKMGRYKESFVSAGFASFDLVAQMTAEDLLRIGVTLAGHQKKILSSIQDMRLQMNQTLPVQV
T7 sequence (Q9H4A3 whole entry): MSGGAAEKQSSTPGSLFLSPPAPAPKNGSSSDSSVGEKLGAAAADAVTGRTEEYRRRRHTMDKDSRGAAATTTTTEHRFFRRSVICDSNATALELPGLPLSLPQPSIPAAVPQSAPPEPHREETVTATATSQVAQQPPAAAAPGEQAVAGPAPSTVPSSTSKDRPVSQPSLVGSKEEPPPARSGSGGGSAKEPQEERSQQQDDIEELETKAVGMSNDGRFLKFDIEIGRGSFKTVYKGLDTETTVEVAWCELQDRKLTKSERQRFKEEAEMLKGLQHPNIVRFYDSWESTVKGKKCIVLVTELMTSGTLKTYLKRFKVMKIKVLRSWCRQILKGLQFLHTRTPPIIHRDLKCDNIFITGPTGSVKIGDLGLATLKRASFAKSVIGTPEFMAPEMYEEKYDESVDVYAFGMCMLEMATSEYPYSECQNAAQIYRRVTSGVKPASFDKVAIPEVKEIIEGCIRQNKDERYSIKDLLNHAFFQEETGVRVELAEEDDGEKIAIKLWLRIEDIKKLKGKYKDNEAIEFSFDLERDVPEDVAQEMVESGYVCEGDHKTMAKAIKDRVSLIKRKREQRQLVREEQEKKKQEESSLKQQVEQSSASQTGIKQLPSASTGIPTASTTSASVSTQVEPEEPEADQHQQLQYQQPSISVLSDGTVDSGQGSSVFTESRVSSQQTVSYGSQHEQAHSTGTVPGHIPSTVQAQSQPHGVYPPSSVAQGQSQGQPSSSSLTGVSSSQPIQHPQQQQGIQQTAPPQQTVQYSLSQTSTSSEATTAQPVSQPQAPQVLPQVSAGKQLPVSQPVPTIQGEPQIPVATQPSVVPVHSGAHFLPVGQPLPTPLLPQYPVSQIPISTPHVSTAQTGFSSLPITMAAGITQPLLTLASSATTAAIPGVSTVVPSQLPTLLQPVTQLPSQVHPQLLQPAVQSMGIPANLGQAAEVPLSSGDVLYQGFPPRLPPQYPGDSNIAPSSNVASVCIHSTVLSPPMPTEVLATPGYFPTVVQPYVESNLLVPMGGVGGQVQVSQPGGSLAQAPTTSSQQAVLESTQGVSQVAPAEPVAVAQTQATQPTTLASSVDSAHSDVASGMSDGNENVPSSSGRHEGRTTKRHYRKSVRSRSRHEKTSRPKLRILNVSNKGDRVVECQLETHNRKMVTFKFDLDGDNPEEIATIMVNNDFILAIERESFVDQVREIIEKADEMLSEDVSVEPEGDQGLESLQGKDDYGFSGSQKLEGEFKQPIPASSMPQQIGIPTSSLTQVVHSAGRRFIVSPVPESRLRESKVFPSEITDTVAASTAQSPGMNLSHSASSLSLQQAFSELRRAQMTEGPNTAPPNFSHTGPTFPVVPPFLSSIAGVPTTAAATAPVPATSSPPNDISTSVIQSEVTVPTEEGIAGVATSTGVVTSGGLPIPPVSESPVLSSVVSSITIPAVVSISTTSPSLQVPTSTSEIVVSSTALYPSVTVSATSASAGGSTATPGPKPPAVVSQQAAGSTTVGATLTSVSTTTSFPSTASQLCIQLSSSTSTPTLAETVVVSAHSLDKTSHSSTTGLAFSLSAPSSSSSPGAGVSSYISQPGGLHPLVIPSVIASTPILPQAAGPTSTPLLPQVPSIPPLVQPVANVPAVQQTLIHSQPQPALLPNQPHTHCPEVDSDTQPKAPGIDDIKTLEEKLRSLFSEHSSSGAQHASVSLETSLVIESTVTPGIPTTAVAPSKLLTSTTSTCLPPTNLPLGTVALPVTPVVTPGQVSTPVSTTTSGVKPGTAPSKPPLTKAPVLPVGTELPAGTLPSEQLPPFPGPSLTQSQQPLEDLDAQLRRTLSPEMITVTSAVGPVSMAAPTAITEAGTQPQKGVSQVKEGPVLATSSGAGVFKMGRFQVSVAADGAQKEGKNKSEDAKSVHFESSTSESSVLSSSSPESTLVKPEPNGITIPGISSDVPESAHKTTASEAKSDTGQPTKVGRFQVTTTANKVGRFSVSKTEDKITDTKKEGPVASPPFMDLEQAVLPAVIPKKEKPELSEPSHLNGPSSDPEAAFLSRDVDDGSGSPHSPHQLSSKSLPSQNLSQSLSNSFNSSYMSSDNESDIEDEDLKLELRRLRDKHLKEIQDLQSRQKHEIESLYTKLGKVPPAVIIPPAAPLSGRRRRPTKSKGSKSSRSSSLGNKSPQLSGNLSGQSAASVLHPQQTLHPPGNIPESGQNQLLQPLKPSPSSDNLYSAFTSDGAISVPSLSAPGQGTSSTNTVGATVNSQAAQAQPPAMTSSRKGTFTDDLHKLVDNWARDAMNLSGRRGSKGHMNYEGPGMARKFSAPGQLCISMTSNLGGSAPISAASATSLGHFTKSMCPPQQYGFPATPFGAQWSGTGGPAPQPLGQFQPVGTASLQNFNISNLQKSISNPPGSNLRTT
Sequence of MAP2K1 (MEK1) (Q02750 whole entry): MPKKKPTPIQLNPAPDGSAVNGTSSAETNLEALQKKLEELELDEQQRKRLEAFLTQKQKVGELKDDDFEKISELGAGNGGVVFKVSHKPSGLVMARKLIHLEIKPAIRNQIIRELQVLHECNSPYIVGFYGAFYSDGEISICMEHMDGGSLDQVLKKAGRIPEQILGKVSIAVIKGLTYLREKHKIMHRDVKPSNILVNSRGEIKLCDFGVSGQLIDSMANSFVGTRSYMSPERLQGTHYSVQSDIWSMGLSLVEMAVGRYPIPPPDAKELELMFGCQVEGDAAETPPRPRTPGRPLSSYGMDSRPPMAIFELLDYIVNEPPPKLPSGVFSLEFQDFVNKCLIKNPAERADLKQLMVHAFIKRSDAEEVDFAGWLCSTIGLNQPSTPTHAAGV

With `Cn1cncc1C1=CN(c2ncnc3nc[nH]c23)CCS1` [Compound 1, Aplithianine A] the inhibition at 2 µM (PKCθ) was 97.9%, the inhibition at 2 µM (STK39/STLK3) was 87.3% and the inhibition at 0.05 µM (PKCv/PKD3; 50 nM, 10 μM ATP) was 25%. For the same compound, the inhibition at 2 µM (PKCv/PKD3; 2 μM, 10 μM ATP) was 88.9%, the IC50 (PKCv/PKD3; 10 μM ATP, read-out: PKCv/PKD3 IC50) was 130 nM and the “PKCnu Differential (as compared to PKG1a)” value (PKCv/PKD3; IC50 (kinase)/IC50 (PKG1a)) was 11.92. The IC50 (PKCv/PKD3; Table 4 dose-response, read-out: PKCnu IC50 Values) was 136 nM, the inhibition at 0.05 µM (DYRK1A; 50 nM, 10 μM ATP) was 23.1% and the inhibition at 2 µM (DYRK1A; 2 μM, 10 μM ATP) was 95.4%. For the same compound, the IC50 (DYRK1A; 10 μM ATP, read-out: DYRK1A IC50) was 119 nM, the “DYRK1A Differential (as compared to PKG1a)” value (DYRK1A; IC50 (kinase)/IC50 (PKG1a)) was 10.01 and the IC50 (DYRK1A; Table 4 dose-response, read-out: DYRK1A IC50 Values) was 114 nM. The inhibition at 0.05 µM (NLK; 50 nM) was 19.6%, the inhibition at 2 µM (NLK; 2 μM) was 43% and the inhibition at 0.05 µM (DYRK3; 50 nM, 10 μM ATP) was 15.9%. For the same compound, the inhibition at 2 µM (DYRK3; 2 μM, 10 μM ATP) was 90.9%, the IC50 (DYRK3; 10 μM ATP, read-out: DYRK3 IC50) was 202 nM and the “DYRK3 Differential (as compared to PKG1a)” value (DYRK3; IC50 (kinase)/IC50 (PKG1a)) was 19.13. For the same compound, the IC50 (DYRK3; Table 4 dose-response, read-out: DYRK3 IC50 Values) was 218 nM, the inhibition at 0.05 µM (WNK1; 50 nM) was 14.1% and the inhibition at 2 µM (WNK1; 2 μM) was 10.7%. The inhibition at 0.05 µM (EPHB3; 50 nM) was 12.8%, the inhibition at 2 µM (EPHB3; 2 μM) was 20.2% and the inhibition at 0.05 µM (CDK9) was 12.4%. The IC50 (DYRK4) was 15200 nM, the IC50 (MAP2K1 (MEK1)) was 18000 to 65000 nM and the IC50 (MAP2K1 (MEK1); read-out: MAP2K1 / MEK1 IC50, 10 μM ATP) was 23600 nM. For the same compound, the IC50 (CAMK1δ) was 18000 to 65000 nM and the IC50 (CAMK1δ; read-out: CAMK1δ IC50, 10 μM ATP) was 52300 nM.
